Key:
Progesterone receptor = biological target: T1, Progesterone receptor (Homo sapiens, UniProt P06401)
T1 sequence (P06401 whole entry): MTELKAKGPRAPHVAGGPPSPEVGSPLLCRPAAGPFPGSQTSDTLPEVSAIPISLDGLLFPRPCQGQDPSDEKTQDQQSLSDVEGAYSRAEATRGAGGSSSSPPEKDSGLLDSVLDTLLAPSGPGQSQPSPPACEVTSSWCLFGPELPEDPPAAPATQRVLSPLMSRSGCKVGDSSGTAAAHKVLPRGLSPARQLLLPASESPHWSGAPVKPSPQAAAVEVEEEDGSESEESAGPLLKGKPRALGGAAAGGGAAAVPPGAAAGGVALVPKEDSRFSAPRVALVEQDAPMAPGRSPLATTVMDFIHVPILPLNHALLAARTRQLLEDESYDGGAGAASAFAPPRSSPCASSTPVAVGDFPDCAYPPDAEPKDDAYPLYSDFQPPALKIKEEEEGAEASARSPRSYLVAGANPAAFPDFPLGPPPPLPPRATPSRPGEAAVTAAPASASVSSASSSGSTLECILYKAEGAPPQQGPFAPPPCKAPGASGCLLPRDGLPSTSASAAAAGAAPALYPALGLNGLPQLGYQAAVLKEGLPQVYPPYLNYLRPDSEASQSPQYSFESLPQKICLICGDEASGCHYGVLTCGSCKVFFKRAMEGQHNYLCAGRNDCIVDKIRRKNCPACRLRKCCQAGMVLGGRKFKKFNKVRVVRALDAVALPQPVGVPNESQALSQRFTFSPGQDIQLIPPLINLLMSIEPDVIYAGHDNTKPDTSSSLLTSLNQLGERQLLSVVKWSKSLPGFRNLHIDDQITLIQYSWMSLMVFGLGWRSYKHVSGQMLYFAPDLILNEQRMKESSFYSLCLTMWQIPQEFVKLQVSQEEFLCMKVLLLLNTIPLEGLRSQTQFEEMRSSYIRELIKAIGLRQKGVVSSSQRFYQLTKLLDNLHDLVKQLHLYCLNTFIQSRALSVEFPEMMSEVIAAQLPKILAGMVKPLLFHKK

D(3) dopamine receptor = D(3) dopamine receptor (Homo sapiens, UniProt P35462)
Chain of D(3) dopamine receptor (P35462 whole entry): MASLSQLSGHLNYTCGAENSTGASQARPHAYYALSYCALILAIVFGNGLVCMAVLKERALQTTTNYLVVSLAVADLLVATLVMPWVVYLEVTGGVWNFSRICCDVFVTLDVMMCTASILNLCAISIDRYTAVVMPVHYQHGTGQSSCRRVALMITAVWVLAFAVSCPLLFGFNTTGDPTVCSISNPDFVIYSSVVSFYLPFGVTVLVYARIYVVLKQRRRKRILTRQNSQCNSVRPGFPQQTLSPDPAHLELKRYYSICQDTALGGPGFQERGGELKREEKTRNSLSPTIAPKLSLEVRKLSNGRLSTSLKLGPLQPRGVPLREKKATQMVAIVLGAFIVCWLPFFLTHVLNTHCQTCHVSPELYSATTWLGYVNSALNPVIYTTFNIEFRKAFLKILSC

[1] = biological target: Voltage-gated inwardly rectifying potassium channel KCNH2 (Homo sapiens, UniProt Q12809); assay type: functional; conditions: read-out: AC50
Chain of Voltage-gated inwardly rectifying potassium channel KCNH2 (Q12809 whole entry): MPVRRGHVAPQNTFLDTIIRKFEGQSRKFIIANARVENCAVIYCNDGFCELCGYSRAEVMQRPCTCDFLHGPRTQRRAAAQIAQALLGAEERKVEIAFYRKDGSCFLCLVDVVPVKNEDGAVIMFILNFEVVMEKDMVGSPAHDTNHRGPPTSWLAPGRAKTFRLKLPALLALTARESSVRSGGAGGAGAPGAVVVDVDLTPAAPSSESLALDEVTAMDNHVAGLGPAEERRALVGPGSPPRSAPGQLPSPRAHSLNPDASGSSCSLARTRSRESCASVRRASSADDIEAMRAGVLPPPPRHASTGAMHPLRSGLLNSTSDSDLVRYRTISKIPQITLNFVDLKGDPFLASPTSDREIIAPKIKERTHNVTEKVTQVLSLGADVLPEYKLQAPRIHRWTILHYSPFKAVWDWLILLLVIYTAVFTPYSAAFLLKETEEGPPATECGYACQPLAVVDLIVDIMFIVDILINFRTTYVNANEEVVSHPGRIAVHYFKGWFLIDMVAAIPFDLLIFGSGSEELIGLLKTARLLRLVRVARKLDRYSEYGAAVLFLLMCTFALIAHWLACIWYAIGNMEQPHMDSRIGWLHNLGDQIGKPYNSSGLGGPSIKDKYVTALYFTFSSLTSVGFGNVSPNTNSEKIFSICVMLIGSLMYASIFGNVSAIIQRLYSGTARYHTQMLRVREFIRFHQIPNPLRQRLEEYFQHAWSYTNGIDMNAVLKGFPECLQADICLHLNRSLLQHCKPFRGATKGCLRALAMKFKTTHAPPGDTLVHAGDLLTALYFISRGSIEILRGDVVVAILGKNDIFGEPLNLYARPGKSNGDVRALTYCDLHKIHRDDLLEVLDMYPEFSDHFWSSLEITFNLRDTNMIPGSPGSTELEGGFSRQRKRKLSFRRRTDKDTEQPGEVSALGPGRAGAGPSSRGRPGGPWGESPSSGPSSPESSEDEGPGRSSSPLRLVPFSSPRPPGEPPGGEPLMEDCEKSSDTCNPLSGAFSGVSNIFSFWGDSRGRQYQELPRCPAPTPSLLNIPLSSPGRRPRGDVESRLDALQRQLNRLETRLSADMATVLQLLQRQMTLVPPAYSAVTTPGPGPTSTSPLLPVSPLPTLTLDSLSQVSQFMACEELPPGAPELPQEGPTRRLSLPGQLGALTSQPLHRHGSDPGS

[2] = biological target: T2, Amine oxidase [flavin-containing] A (Homo sapiens, UniProt P21397); assay type: functional
T2 sequence (P21397 whole entry): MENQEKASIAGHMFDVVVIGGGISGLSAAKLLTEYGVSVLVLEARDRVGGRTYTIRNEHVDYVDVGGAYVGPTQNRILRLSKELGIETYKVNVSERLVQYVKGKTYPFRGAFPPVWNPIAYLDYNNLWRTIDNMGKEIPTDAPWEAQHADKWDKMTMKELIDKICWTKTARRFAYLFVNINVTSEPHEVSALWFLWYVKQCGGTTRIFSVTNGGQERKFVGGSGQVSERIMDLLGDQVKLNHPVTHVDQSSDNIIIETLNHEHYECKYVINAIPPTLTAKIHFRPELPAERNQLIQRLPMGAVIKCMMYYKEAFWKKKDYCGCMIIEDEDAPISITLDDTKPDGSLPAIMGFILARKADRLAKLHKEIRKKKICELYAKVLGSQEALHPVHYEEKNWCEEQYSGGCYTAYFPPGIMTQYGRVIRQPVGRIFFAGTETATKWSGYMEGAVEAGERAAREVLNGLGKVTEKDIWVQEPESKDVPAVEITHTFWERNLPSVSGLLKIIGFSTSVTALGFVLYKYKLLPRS

[3] = biological target: T3, 5-hydroxytryptamine receptor 2C (Homo sapiens, UniProt P28335)
T3 sequence (P28335 whole entry): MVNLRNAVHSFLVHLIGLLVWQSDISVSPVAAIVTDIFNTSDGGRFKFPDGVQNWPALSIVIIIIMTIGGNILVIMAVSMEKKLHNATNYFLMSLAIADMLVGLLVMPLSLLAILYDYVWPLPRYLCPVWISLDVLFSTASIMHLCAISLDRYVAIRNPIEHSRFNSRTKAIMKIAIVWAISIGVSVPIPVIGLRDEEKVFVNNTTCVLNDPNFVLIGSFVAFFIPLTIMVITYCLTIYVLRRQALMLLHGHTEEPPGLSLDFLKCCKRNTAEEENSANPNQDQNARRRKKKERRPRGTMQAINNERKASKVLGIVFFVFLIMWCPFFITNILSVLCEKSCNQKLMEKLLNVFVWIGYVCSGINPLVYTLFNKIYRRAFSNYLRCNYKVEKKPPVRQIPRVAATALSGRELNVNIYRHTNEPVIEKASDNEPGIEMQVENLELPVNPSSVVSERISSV

[4] = biological target: T4, Cholecystokinin receptor type A (Homo sapiens, UniProt P32238)
T4 sequence (P32238 whole entry): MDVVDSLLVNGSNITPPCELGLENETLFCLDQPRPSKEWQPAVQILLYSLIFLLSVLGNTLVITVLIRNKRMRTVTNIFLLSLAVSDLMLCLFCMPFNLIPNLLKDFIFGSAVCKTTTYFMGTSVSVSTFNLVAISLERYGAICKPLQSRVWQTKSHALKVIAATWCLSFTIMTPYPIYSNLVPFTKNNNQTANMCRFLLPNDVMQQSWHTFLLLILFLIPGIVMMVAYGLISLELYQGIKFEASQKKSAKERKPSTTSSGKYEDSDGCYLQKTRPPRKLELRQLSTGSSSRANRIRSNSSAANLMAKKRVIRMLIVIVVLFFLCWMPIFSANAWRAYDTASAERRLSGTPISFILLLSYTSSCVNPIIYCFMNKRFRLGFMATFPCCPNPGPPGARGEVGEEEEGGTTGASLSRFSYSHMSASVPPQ

D(1A) dopamine receptor = D(1A) dopamine receptor (Homo sapiens, UniProt P21728); assay type: functional, cell-based
Chain of D(1A) dopamine receptor (P21728 whole entry): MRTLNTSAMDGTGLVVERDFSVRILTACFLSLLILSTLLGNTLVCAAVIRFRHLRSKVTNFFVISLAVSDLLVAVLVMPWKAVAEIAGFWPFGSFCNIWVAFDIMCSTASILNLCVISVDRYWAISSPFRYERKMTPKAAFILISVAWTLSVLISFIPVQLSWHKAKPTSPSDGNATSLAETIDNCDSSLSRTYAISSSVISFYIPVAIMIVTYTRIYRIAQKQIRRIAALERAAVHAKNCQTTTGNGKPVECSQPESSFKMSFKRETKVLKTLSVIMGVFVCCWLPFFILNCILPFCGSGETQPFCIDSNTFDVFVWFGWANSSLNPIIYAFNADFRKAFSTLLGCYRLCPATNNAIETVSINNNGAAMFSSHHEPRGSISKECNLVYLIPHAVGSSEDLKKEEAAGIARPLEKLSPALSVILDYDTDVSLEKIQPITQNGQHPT

[5] = biological target: Delta-type opioid receptor (Homo sapiens, UniProt P41143)
Chain of Delta-type opioid receptor (P41143 whole entry): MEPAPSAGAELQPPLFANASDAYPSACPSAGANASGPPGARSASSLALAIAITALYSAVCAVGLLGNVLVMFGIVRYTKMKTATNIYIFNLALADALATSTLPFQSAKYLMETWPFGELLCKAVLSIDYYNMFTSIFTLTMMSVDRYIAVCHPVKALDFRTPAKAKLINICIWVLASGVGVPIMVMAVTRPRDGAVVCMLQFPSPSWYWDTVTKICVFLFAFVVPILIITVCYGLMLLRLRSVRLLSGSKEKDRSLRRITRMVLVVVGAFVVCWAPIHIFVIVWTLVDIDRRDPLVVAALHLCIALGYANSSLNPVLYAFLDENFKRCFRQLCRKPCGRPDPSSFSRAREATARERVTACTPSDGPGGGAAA

[6] = biological target: Beta-1 adrenergic receptor (Homo sapiens, UniProt P08588); assay type: functional
Chain of Beta-1 adrenergic receptor (P08588 whole entry): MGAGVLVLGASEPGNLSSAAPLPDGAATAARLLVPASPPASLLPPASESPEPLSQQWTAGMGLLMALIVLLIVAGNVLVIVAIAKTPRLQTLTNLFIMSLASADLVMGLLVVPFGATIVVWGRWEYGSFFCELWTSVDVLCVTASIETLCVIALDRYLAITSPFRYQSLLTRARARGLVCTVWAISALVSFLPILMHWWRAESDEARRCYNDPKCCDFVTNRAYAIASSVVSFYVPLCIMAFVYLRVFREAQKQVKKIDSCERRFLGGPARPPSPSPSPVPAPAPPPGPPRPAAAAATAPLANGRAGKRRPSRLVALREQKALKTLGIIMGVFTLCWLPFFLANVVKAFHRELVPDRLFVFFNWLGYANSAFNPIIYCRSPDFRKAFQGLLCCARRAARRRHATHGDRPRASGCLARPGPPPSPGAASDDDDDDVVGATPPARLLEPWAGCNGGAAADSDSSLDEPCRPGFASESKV
Further: assay procedure not described here.

Structure (SMILES)	AC50 (Progesterone receptor) [µM]	AC50 (D(3) dopamine receptor) [µM]	AC50 [1] [µM]	AC50 [2] [µM]	AC50 [3] [µM]	AC50 [4] [µM]	AC50 (D(1A) dopamine receptor) [µM]	AC50 [5] [µM]	AC50 [6] [µM]
C[C@]12CC[C@@H]3c4ccc(OC(=O)N(CCCl)CCCl)cc4CC[C@H]3[C@@H]1CC[C@@H]2OP(=O)(O)O [ESTRAMUSTINE PHOSPHATE]	> 30	> 30	–	–	–	–	–	–	–
O=c1[nH]c2ccccc2n1CCN1CCN(c2cccc(C(F)(F)F)c2)CC1 [FLIBANSERIN]	> 30	0.286	13	–	–	–	–	–	–
O=C(O)[C@H](O)[C@@H](O)[C@H](O)[C@H](O)CO [GLUCONIC ACID]	> 30	> 30	> 30	–	–	–	–	–	–
N=C(N)NCC1COc2ccccc2O1 (stereo unspecified) [GUANOXAN]	> 30	8.54	> 30	–	–	–	–	–	–
CCN(CCO)CCCC(C)Nc1ccnc2cc(Cl)ccc12 (stereo unspecified) [HYDROXYCHLOROQUINE]	–	–	7.4	> 10	> 30	> 10	> 10	> 30	–
N#Cc1ccnc(N2C(=O)CC[C@H]2C(=O)N(c2cncc(F)c2)[C@H](C(=O)NC2CC(F)(F)C2)c2ccccc2Cl)c1 [IVOSIDENIB]	> 30	> 30	> 30	–	–	–	–	–	–
CNC1(c2ccccc2Cl)CCCCC1=O (stereo unspecified) [KETAMINE]	> 30	> 30	> 30	–	–	–	–	–	–
O=C(c1ccccc1)c1ccc2n1CCC2C(=O)O (stereo unspecified) [KETOROLAC]	–	–	> 30	> 30	> 30	> 10	> 30	> 30	> 10
O=NN(CCCl)C(=O)NC1CCCCC1 [LOMUSTINE]	> 30	> 30	–	–	–	–	–	–	–
CNC1(C)C2CCC(C2)C1(C)C (stereo unspecified) [MECAMYLAMINE]	–	–	> 30	> 10	> 30	> 10	> 10	> 30	> 10
CCCCCCCC/C=C\CCCCCCCC(=O)O [OLEIC ACID]	–	> 30	> 30	–	–	–	–	–	–
CCC1(c2ccccc2)C(=O)NCNC1=O [PRIMIDONE]	–	–	> 30	> 10	> 30	> 10	> 10	> 30	> 10
CC(=O)SCC(Cc1ccccc1)C(=O)NCC(=O)OCc1ccccc1 (stereo unspecified) [RACECADOTRIL]	–	–	> 30	> 30	> 30	> 30	> 30	> 30	> 30
CCOc1ccccc1OCCN[C@H](C)Cc1ccc(OC)c(S(N)(=O)=O)c1 [TAMSULOSIN]	–	–	6.95	> 10	> 30	> 30	> 10	> 30	2.5
C[C@H](Cn1cnc2c(N)ncnc21)OCP(=O)(O)O [TENOFOVIR ANHYDROUS]	–	–	> 30	> 30	> 30	> 30	> 30	> 10	> 30
CN(C)CCN(Cc1ccccc1)c1ccccn1 [TRIPELENNAMINE]	–	–	2.8	> 10	> 10	> 10	> 10	> 30	> 30

Source: ChEMBL document CHEMBL5291721, “A preclinical secondary pharmacology resource illuminates target-adverse drug reaction associations of marketed drugs” (Nat Commun, 2023)
